Read-outs that look alike come from different tables or passages of the source.
Tests used:
wildtype Kras / hSOS1 = target: T1, wildtype Kras / hSOS1 (Homo sapiens, UniProt P01116); assay: HTRF assay, wildtype Kras / SOS1 interaction; format: binding; conditions: read-out: IC50 against wildtype Kras
T1 construct: made in house; host or cells: E. coli BL21 (DE3)
Method in brief: (§1)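 Tagged proteins: GST-K-Ras (wt or mutant), His-hSOS1; labels anti-GST-Eu/anti-6His-XL665; HEPES pH 7.4 buffer with DTT, BSA, Igepal. Read ≥10 min post-mix at ex 337 nm; IC50 from ratiometric data, duplicates.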

[1] = target: GST-tagged K-Ras mutant / His-tagged hSOS1 (Homo sapiens, UniProt P01116); assay: HTRF assay, K-Ras mutant / SOS1 interaction; format: binding; conditions: read-out: IC50 against mutant Kras
GST-tagged K-Ras mutant / His-tagged hSOS1, sequence (P01116 whole entry G12D, form open): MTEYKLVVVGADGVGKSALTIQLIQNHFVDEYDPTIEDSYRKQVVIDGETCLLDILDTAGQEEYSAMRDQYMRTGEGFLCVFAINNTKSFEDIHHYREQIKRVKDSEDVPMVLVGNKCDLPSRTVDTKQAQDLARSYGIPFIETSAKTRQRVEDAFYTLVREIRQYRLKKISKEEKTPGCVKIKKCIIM
Method in brief: as §1

[2] = compound nos. 102-196, general methodology of example 5
[3] = compound nos. 201-213, general methodology of example 5

T1 sequence (P01116 1-188 isoform P01116-2): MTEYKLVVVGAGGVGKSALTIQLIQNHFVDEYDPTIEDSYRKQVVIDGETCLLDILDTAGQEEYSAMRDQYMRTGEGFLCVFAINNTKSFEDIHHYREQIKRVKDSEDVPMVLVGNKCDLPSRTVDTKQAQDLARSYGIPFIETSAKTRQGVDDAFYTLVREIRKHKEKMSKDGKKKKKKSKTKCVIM

SMILES | IC50 (wildtype Kras / hSOS1; compound nos. 401-703) [nM] | IC50 ([1]; compound nos. 401-703) [nM] | also measured
CN1CCC[C@H]1COc1nc(N2CCNCC(F)(F)C2)c2cc(Cl)c(-c3cccc4nc(N)sc34)c(F)c2n1 [Compound 184, 7-(6-chloro-4-(6,6-difluoro-1,4-diazepan-1-yl)-8-fluoro-2-(((S)-1-methylpyrrolidin-2-yl)methoxy)quinazolin-7-yl)benzo[d]thiazol-2-amine] | – | – | IC50 (wildtype Kras / hSOS1; [2]): > 500 nM; IC50 [1, 2]: > 500 nM
Nc1nc2c(-c3c(Cl)cc4c(N5[C@@H]6CC[C@H]5CNC6)nc(OC[C@@]56CCCN5C[C@H](F)C6)nc4c3F)ccc(F)c2s1 [Compound 301, 4-(4-((1R,5S)-3,8-diaza-bicyclo[3.2.1]octan-8-yl)-6-chloro-8-fluoro-2-(((2R,7aS)-2-fluorotetra-hydro-1H-pyrrolizin-7a(5H)-yl)methoxy)quinazolin-7-yl)-7-fluorobenzo[d]thiazol-2-amine] | – | – | IC50 (wildtype Kras / hSOS1; compound nos. 301-306): < 1500 nM; IC50 ([1]; compound nos. 301-306): < 1500 nM
N#Cc1c(N)sc2c(F)ccc(-c3c(Cl)cc4c(N5CC6CCC(C5)N6)nc(OC[C@@]56CCCN5C[C@H](F)C6)nc4c3F)c12 [Compound 638, 4-(4-(3,8-diazabicyclo-[3.2.1]octan-3-yl)-6-chloro-8-fluoro-2-(((2R,7aS)-2-fluorotetrahydro-1H-pyrrol-izin-7a(5H)-yl)methoxy)-quinazolin-7-yl)-2-amino-7-fluorobenzo[b]thiophene-3-carbonitrile] | > 500 | < 500 | –
Nc1nc2c(-c3c(Cl)cc4c(N5C[C@H]6CC[C@@H](C5)N6)nc(OC[C@@]56CCCN5C[C@H](F)C6)nc4c3F)ccc(F)c2s1 [Compound 206, 4-(4-((1R,5S)-3,8-diaza-bicyclo[3.2.1]octan-3-yl)-6-chloro-8-fluoro-2-(((2R,7aS)-2-fluorotetra-hydro-1H-pyrrolizin-7a(5H)-yl)methoxy)quinazolin-7-yl)-7-fluorobenzo[d]thiazol-2-amine] | – | – | IC50 (wildtype Kras / hSOS1; [3]): < 1500 nM; IC50 [1, 3]: < 1500 nM
C#Cc1c(F)ccc2cc(O)cc(-c3ccc4c(N5CCCC6(CNC6)C5)nc(OC[C@@]56CCCN5C[C@H](F)C6)nc4c3F)c12 [Compound 508, 5-ethynyl-6-fluoro-4-(8-fluoro-2-(((2R,7aS)-2-fluorotetrahydro-1H-pyrrol-izin-7a(5H)-yl)methoxy)-4-(2,6-diazaspiro[3.5]nonan-6-yl)quinazolin-7-yl)naph-thalen-2-ol] | > 500 | < 500 | –
Nc1nc2c(-c3c(Cl)cc4c(N5CCCCC(F)C5)nc(OC[C@@]56CCCN5C[C@H](F)C6)nc4c3F)ccc(F)c2s1 (stereo partly drawn) [Compound 190, 4-(6-chloro-8-fluoro-4-(3-fluoroazepan-1-yl)-2-(((2R,7aS)-2-fluorotetra-hydro-1H-pyrrolizin-7a(5H)-yl)methoxy)quin-azolin-7-yl)-7-fluorobenzo-[d]thiazol-2-amine] | – | – | IC50 (wildtype Kras / hSOS1; [2]): < 500 nM; IC50 [1, 2]: < 500 nM
CC(C)CN1[C@@H]2CC[C@H]1CN(c1nc(OCC34CCCN3CCC4)nc3c(F)c(-c4ccc(F)c5sc(N)nc45)c(Cl)cc13)C2 [Compound 617, 4-(6-chloro-8-fluoro-4-((1R,5S)-8-isobutyl-3,8-diazabicyclo[3.2.1]octan-3-yl)-2-((tetrahydro-1H-pyrrolizin-7a(5H)-yl)meth-oxy)quinazolin-7-yl)-7-fluorobenzo[d]thiazol-2-amine] | > 500 | < 500 | –
Fc1c(Br)ccc2c(N3CC4CCC(C3)N4)nc(OC[C@@]34CCCN3C[C@H](F)C4)nc12 [Compound 537, 4-(3,8-diazabicyclo[3.2.1]-octan-3-yl)-7-bromo-8-fluoro-2-(((2R,7aS)-2-fluorotetrahydro-1H-pyrrol-izin-7a(5H)-yl)methoxy)-quinazoline] | > 500 | > 500 | –
Cn1cnnc1COc1nc(N2CCNCC(F)(F)C2)c2cc(Cl)c(-c3cccc4sc(N)nc34)c(F)c2n1 [Compound 131, 4-(6-chloro-4-(6,6-difluoro-1,4-diazepan-1-yl)-8-fluoro-2-((4-methyl-4H-1,2,4-triazol-3-yl)methoxy)quin-azolin-7-yl)benzo[d]thiazol-2-amine] | – | – | IC50 (wildtype Kras / hSOS1; [2]): > 500 nM; IC50 [1, 2]: > 500 nM
Nc1nc2c(-c3c(Cl)cc4c(N5CCCCC56CNC6)nc(OC[C@@]56CCCN5C[C@H](F)C6)nc4c3F)ccc(F)c2s1 [Compound 629, 4-(6-chloro-8-fluoro-2-(((2R,7aS)-2-fluorotetra-hydro-1H-pyrrolizin-7a(5H)-yl)methoxy)-4-(2,5-diaza-spiro[3.5]nonan-5-yl)quin-azolin-7-yl)-7-fluorobenzo-[d]thiazol-2-amine] | > 500 | > 500 | –

More lines, main results first:

IC50 (wildtype Kras / hSOS1; compound nos. 401-703) [nM] | IC50 ([1]; compound nos. 401-703) [nM] | SMILES | also measured
> 500 | > 500 | Oc1ccc2c(c1)N(c1ccc3c(N4CCCCCC4)nc(OCC45CCCN4CCC5)nc3c1F)CCC2 [Compound 584, 1-(4-(azepan-1-yl)-8-fluoro-2-((tetrahydro-1H-pyrrol-izin-7a(5H)-yl)methoxy)-quinazolin-7-yl)-1,2,3,4-tetrahydroquinolin-7-ol] | –
> 500 | < 500 | CN1CCC[C@H]1COc1nc(N2CCCCC(N)C2)c2cc(Cl)c(-c3cccc4sc(N)nc34)c(F)c2n1 (stereo partly drawn) [Compound 672, 4-(4-(3-aminoazepan-1-yl)-6-chloro-8-fluoro-2-(((S)-1-methylpyrrolidin-2-yl)meth-oxy)quinazolin-7-yl)ben-zo[d]thiazol-2-amine] | –
> 500 | > 500 | Nc1nc2c(-c3c(Cl)cc4c(N5CC6CCC(C5)N6)nc(OCC56CCCC5CCC6)nc4c3F)cccc2s1 (centres unmarked) [Compound 571, 4-(4-(3,8-diazabicyclo-[3.2.1]octan-3-yl)-6-chloro-8-fluoro-2-((hexahydro-pentalen-3a(1H)-yl)meth-oxy)quinazolin-7-yl)benzo-[d]thiazol-2-amine] | –
> 500 | > 500 | Fc1c(-c2cccc3ncccc23)c(Cl)cc2c(N3CCCCCC3)nc(OCC34CCCN3CCC4)nc12 [Compound 540, 4-(azepan-1-yl)-6-chloro-8-fluoro-7-(quinolin-5-yl)-2-((tetrahydro-1H-pyrrolizin-7a(5H)-yl)methoxy)quin-azoline] | –
> 500 | < 500 | CN1CCC[C@H]1COc1nc(N2CCCC(Cl)CC2)c2cc(Cl)c(-c3cccc4sc(N)nc34)c(F)c2n1 (stereo partly drawn) [Compound 593, 4-(6-chloro-4-(4-chloro-azepan-1-yl)-8-fluoro-2-(((S)-1-methylpyrrolidin-2-yl)methoxy)quinazolin-7-yl)benzo[d]thiazol-2-amine] | –
< 500 | < 500 | CN1CCC[C@H]1COc1nc(N2CCCS(=O)(=O)CC2)c2cc(Cl)c(-c3cccc4sc(N)nc34)c(F)c2n1 [Compound 475, 4-(7-(2-aminobenzo[d]-thiazol-4-yl)-6-chloro-8-fluoro-2-(((S)-1-methyl-pyrrolidin-2-yl)methoxy)-quinazolin-4-yl)-1,4-thiazepane 1,1-dioxide] | –
> 500 | < 500 | Nc1nc2c(-c3c(Cl)cc4c(N5CCCC6(CCNC6)C5)nc(OC[C@@]56CCCN5C[C@H](F)C6)nc4c3F)ccc(F)c2s1 (stereo partly drawn) [Compound 532, 4-(6-chloro-8-fluoro-2-(((2R,7aS)-2-fluorotetra-hydro-1H-pyrrolizin-7a(5H)-yl)methoxy)-4-(2,7-diaza-spiro[4.5]decan-7-yl)quin-azolin-7-yl)-7-fluorobenzo-[d]thiazol-2-amine] | –
> 500 | > 500 | Nc1ccc2cccc(-c3ccc4c(N5CC6CCC(C5)N6)nc(OCC56CCCN5CCC6)nc4c3F)c2n1 [Compound 596, 8-(4-(3,8-diazabicyclo-[3.2.1]octan-3-yl)-8-fluoro-2-((tetrahydro-1H-pyrrol-izin-7a(5H)-yl)methoxy)-quinazolin-7-yl)quinolin-2-amine] | –
< 500 | < 500 | Nc1nc2c(-c3c(Cl)cc4c(N5CCCC(O)CC5)nc(OC[C@@]56CCCN5C[C@H](F)C6)nc4c3F)ccc(F)c2s1 (stereo partly drawn) [Compound 407, 1-(7-(2-amino-7-fluoro-benzo[d]thiazol-4-yl)-6-chloro-8-fluoro-2-(((2R,7aS)-2-fluorotetrahydro-1H-pyr-rolizin-7a(5H)-yl)methoxy)-quinazolin-4-yl)azepan-4-ol] | –
< 500 | > 500 | Cc1ccc(CN)cc1-c1c(Cl)cc2c(N3CC4CCC(C3)N4)nc(OCC34CCCN3CCC4)nc2c1F [Compound 469, (3-(4-(3,8-diazabicyclo-[3.2.1]octan-3-yl)-6-chloro-8-fluoro-2-((tetrahydro-1H-pyrrolizin-7a(5H)-yl)meth-oxy)quinazolin-7-yl)-4-methylphenyl)methanamine] | –
< 500 | < 500 | N#CC1C2CCC1CN(c1nc(OC[C@@]34CCCN3C[C@H](F)C4)nc3c(F)c(-c4ccc(F)c5sc(N)nc45)c(Cl)cc13)C2 (stereo partly drawn) [Compound 403, (1R,5S,8S)-3-(7-(2-amino-7-fluorobenzo[d]thiazol-4-yl)-6-chloro-8-fluoro-2-(((2R,7aS)-2-fluorotetra-hydro-1H-pyrrolizin-7a(5H)-yl)methoxy)quinazolin-4-yl)-3-azabicyclo[3.2.1]-octane-8-carbonitrile] | –
< 500 | < 500 | Cc1ccc2oc(N)nc2c1-c1c(Cl)cc2c(N3CCNCC(F)(F)C3)nc(OC[C@@H]3CCCN3C)nc2c1F [Compound 462, 4-(6-chloro-4-(6,6-difluoro-1,4-diazepan-1-yl)-8-fluoro-2-(((S)-1-methylpyrrolidin-2-yl)methoxy)quinazolin-7-yl)-5-methylbenzo[d]oxazol-2-amine] | –
